# According to ChEMBL document CHEMBL3526122, “Identification of UDP-glucuronosyltransferases responsible for the glucuronidation of darexaban, an oral factor Xa inhibitor, in human liver and intestine” (Drug Metab Dispos, 2012):
# What was measured:
# [1] = biological target: T1, UDP-glucuronosyltransferase 1A10 (Homo sapiens, UniProt Q9HAW8); test: Activity of human recombinant UGT1A10 expressed in baculovirus-infected insect cells assessed as intrinsic clearance for enzyme-mediated glucuronide formation per mg of protein at 1 to 250 uM after 10 mins in presence of UDPGA; assay type: ADME
# T1 sequence (Q9HAW8 whole entry): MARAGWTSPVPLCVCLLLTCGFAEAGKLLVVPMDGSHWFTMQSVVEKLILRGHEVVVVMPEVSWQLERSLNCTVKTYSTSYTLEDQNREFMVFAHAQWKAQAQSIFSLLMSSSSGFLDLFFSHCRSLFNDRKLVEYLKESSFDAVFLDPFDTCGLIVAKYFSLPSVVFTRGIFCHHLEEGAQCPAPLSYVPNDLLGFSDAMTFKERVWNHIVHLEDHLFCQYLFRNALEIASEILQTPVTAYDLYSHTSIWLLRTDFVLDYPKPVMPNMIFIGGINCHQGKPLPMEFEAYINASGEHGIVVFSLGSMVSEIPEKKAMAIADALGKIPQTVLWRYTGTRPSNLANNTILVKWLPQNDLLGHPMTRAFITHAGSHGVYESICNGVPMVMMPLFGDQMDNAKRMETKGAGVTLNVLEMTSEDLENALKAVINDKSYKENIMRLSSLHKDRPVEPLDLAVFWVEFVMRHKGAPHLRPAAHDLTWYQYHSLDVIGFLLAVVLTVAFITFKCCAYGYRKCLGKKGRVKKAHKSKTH
# Liver microsome [2] = test: Unbound intrinsic clearance in human liver microsomes assessed per mg of protein after 10 mins in presence of UDPGA and 0.5% fatty acid free BSA; assay type: ADME
# [3] = Drug metabolism in human liver microsomes assessed as glucuronidation after 10 mins by Michaelis-Menten plot analysis in presence of UDPGA and absence of fatty acid free BSA; assay type: ADME; settings: read-out: Km(unbound)
# [4] = Drug metabolism in human liver microsomes assessed as glucuronidation at 30 uM after 5 mins by LC-MS/MS analysis relative to vehicle-treated control in presence of bilirubin and UDPGA; assay type: ADME; settings: with bilirubin, read-out: Drug metabolism
# Liver microsome [5] = test: Drug metabolism in human liver microsomes assessed as glucuronidation per mg of protein after 10 mins by Michaelis-Menten plot analysis in presence of UDPGA and 0.5% fatty acid free BSA; assay type: ADME
# Liver microsome [6] = test: Drug metabolism in human liver microsomes assessed as glucuronidation per mg of protein after 10 mins by Michaelis-Menten plot analysis in presence of UDPGA and absence of fatty acid free BSA; assay type: ADME
# [7] = biological target: T2, UDP-glucuronosyltransferase 2B7 (Homo sapiens, UniProt P16662); test: Activity of human recombinant UGT2B7 expressed in baculovirus-infected insect cells assessed as enzyme-mediated glucuronidation per mg of protein after 10 mins in presence of UDPGA; assay type: ADME
# T2 sequence (P16662 whole entry): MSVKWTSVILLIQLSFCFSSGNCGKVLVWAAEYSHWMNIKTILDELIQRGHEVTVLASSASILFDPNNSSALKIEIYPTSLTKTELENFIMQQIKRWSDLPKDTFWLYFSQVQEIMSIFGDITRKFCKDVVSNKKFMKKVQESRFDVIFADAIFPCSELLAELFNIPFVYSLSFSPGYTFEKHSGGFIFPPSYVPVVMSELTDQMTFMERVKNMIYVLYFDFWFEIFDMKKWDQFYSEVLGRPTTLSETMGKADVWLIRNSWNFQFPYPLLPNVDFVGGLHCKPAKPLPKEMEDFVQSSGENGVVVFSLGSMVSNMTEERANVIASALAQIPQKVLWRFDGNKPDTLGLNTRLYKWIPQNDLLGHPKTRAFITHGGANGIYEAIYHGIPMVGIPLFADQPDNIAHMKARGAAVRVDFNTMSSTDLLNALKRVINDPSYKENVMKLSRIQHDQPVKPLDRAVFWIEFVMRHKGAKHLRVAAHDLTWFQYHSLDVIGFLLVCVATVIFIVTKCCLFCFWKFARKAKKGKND
# [8] = Ratio of Km for drug metabolism in human liver microsomes to Km for human recombinant UGT-mediated drug metabolism; assay type: ADME; settings: recombinant enzyme
# [9] = Fraction unbound incubation mixture containing human recombinant UGT1A9 at 1 to 250 uM after 10 mins by ultrafiltration method in presence of 2% fatty acid free BSA
# [10] = Fraction unbound in incubation mixture containing human recombinant UGT1A9 at 1 to 250 uM after 10 mins by ultrafiltration method in absence of fatty acid free BSA
# [11] = Drug metabolism in human liver microsomes assessed as glucuronidation at 30 uM after 10 mins by LC-MS/MS analysis relative to vehicle-treated control in presence of propofol and UDPGA; assay type: ADME; settings: with propofol, read-out: Drug metabolism
# [12] = Drug metabolism in human intestinal microsomes assessed as glucuronidation per mg of protein after 5 mins by Michaelis-Menten plot analysis in presence of UDPGA; assay type: ADME, Intestine, Microsome
# Liver microsome [13] = test: Drug metabolism in human liver microsomes assessed as glucuronidation per mg of protein after 10 mins by Michaelis-Menten plot analysis in presence of UDPGA and 0.1% fatty acid free BSA; assay type: ADME
# Liver microsome [14] = test: Intrinsic clearance in human liver microsomes assessed per mg of protein at 1 to 250 uM after 10 mins in presence of UDPGA; assay type: ADME
# [15] = Drug metabolism in human liver microsomes assessed as glucuronidation after 10 mins by Michaelis-Menten plot analysis in presence of UDPGA; assay type: ADME
# [16] = Drug metabolism in human intestinal microsomes assessed as glucuronidation after 5 mins by Michaelis-Menten plot analysis in presence of UDPGA; assay type: ADME, Intestine, Microsome
# [17] = biological target: T3, UDP-glucuronosyltransferase 1A8 (Homo sapiens, UniProt Q9HAW9); test: Ratio of Ki to Km for human recombinant UGT1A8 expressed in baculovirus-infected insect cells; assay type: ADME; settings: recombinant enzyme
# T3 sequence (Q9HAW9 whole entry): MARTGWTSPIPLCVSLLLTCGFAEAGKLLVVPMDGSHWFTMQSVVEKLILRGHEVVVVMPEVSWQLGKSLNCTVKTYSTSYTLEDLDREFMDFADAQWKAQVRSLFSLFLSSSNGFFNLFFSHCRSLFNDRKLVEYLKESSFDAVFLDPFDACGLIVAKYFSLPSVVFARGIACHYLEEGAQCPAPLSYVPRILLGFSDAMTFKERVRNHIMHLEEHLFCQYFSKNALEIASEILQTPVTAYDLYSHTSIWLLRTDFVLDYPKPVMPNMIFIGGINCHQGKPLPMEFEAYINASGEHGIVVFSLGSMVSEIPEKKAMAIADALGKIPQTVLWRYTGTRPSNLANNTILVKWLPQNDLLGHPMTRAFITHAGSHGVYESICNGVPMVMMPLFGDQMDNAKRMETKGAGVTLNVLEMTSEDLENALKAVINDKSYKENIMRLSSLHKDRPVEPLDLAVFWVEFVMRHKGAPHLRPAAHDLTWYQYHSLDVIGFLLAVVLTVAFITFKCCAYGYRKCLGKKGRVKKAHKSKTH
smiles,measurement,setting,value
COc1ccc(C(=O)Nc2cccc(O)c2NC(=O)c2ccc(N3CCCN(C)CC3)cc2)cc1.O=C(O)CCC(=O)O,clearance,[1],39.8 µL/min/mg
same,CL free,Liver microsome [2],184 µL/min/mg
same,Km at 10 min,[3],216 µM
same,"activity at 5 min, 30 µM",[4],59.9%
same,Vmax,Liver microsome [5],3.25 nmol/min/mg
same,Vmax,Liver microsome [6],3.75 nmol/min/mg
same,Drug metabolism,[7],< 0.01 nmol/min/mg
same,Ratio,[8],4.2
same,Fu,[9],0.237
same,Fu,[10],0.879
same,"activity at 10 min, 30 µM",[11],9%
same,Vmax,[12],4.53 nmol/min/mg
same,Vmax,Liver microsome [13],3.25 nmol/min/mg
same,CLint,Liver microsome [14],8.71 µL/min/mg
same,Km at 10 min,[15],> 250 µM
same,Km at 5 min,[16],27.3 µM
same,Ratio,[17],30
